Legend:
G480 lung cancer cells = test: Colony formation assay, single agents and combination; assay type: cell-based; settings: G480; β-lapachone 4 μM, 4 hours; average (SEM) of three experiments
Source text: Control plates received the same volume of DMSO alone. […] Treated wells were presented as percentage of control. Data were presented as an average (+SEM) from three independent experiments.

ASPC-1 = test: Colony formation assay, combination with Taxol; assay type: cell-based, human; settings: β-Lapachone 4 μM, Taxol 0.2 μM, 4 hours
Experimental: Control wells were treated with equivalent volumes of DMSO. After 4 hours cells were rinsed and fresh medium is added. Cultures were observed daily for 10-20 days and then were fixed and stained. […] DNA laddering formation and annexin staining indicate that cell death is due to apoptosis.

60 cancer cell lines = settings: FDA approved agents, publicly available data; cited from earlier work

Compound | Colonies (percent control) (G480 lung cancer cells) | Colonies, Percentage of control (ASPC-1) | mean LC50 across all cells compared with the mean of β-lapachone (60 cancer cell lines)
CC(=O)O[C@H]1C(=O)[C@@]2(C)[C@H]([C@H](OC(=O)c3ccccc3)[C@]3(O)C[C@H](OC(=O)[C@H](O)[C@@H](NC(=O)c4ccccc4)c4ccccc4)C(C)=C1C3(C)C)[C@]1(OC(C)=O)CO[C@@H]1C[C@@H]2O [Taxol ®, paclitaxel, reference compound] | 39 (2.6) percent control | 71 (0.8) Percentage of control | –
O=C1c2c(O)ccc(O)c2C(=O)c2c(NCCNCCO)ccc(NCCNCCO)c21 [mitoxantrone] | – | – | equals it

— patent US20050187288A1, “Beta-lapachone and methods of treating cancer” (priority 2004, published 2005)
